Measurements from EPA's ToxValDB 9.5.
In brackets after ≈: the same amount, converted by molar mass. Several values for one entry are separate records, joined by “and”; a condition that tells them apart may be missing. Equal values may be shown once.

Key:
Rattus norvegicus [1] = system: Rattus norvegicus
Rattus norvegicus [2] = conditions: subchronic; duration: 63 days; oral; gavage; M; Sprague-Dawley; Clinical Observation: Piloerection SalivationMatted fur + Body Weight Changes: decrease
Rattus norvegicus [3] = assay: LC0; higher = less toxic; conditions: acute; Inhalation; Wistar
Oryctolagus sp. [4] = assay: LD0; higher = less toxic; conditions: acute; dermal; occlusive; New Zealand
Bacteria = conditions: In vitro / microbiological growth inhibition; Growth inhibition
Cavia porcellus [5] = conditions: chronic; duration: 26 weeks; inhalation; M/F; Guinea Pig; methemoglobin increase, spleen toxicity
Mus musculus [6] = conditions: chronic; duration: 26 weeks; inhalation; M/F; methemoglobin increase, spleen toxicity
Rattus norvegicus [7] = conditions: inhalation
Rattus norvegicus [8] = conditions: chronic; duration: 104 weeks; oral; diet; M/F; Crl:CD1; Immune, Hematologic
Guinea Pig, Mouse, Rat = conditions: subchronic; inhalation; intermittent; Spleen: Pathology
Mus musculus [9] = conditions: chronic; duration: 2 years; oral; diet; M/F; Tif MAG; Uterine pathology
Monkey = conditions: chronic; oral; F; Cyanomolgus; Altered serum hormones & menstrual cyclicity
Cavia porcellus [10] = conditions: acute; oral; Guinea Pig
Mammals [11] = conditions: acute; Inhalation
Mus musculus [12] = conditions: acute; oral
Cavia porcellus [13] = assay: LD100; higher = less toxic; conditions: acute; oral; Guinea Pig
Mammals [14] = assay: LD100; higher = less toxic; conditions: acute; Oral
Rattus norvegicus [15] = assay: LD100; higher = less toxic; conditions: acute
Mus musculus [16] = conditions: uterotrophic; duration: 3 days; injection; subcutaneous; Active
Oryctolagus sp. [17] = conditions: uterotrophic; injection; subcutaneous; Active
Rattus norvegicus [18] = conditions: uterotrophic, Active
Homo sapiens = conditions: duration: 10 days, oral, F, Withdrawal bleeding
[19] = short-term, duration: 4 weeks, inhalation, M, Sprague-Dawley
[20] = short-term, duration: 4 weeks, inhalation, Sprague-Dawley

## Nc1ccccc1[N+](=O)[O-] [2-Nitrobenzenamine]
Rattus norvegicus [1]; developmental, duration: 6 days, oral, gavage, Sprague-Dawley
  NOAEL: 600 mg/kg-day
Rattus norvegicus [1]; reproduction developmental, duration: 6 days, oral, gavage, F, Sprague-Dawley
  NOAEL: 100 mg/kg-day
Rattus norvegicus [1]; [19]
  LOAEL: 93 mg/m3
  NOAEL: 9.8 mg/m3
Rattus norvegicus [1]; [20]
  LOAEL: 73 mg/m3
  NOAEL: 30 mg/m3
Rattus norvegicus [1]; short-term, duration: 14 days, oral, gavage, Sprague-Dawley
  NOAEL: ≥ 100 mg/kg-day
Rattus norvegicus [2]
  NOAEL: 50 mg/kg-day
Rattus norvegicus [3]
  LC0: > 2530 mg/m3
Oryctolagus sp. [4]
  LD0: > 7940 mg/kg

## CC1(C)S[C@@H]2[C@H](NC(=O)[C@H](N)c3ccc(O)cc3)C(=O)N2[C@H]1C(=O)O [Amoxicillin]
Bacteria
  NOAEC: 0.1 µg/mL

## Nc1ccccc1 [Aniline]
Rattus norvegicus [1]; short-term, duration: 2 weeks, inhalation
  NOAEL: 38.1 mg/m3
Cavia porcellus [5]
  NOAEL: 19 mg/m3
Mus musculus [6]
  NOAEL: 19 mg/m3
Rattus norvegicus [7]; chronic, duration: 26 weeks, M/F, methemoglobin increase, spleen toxicity
  NOAEL: 19 mg/m3
Rattus norvegicus [7]; short-term, M, Mild spleen toxicity 2-Week
  LOAEL: 64.7 mg/m3
Rattus norvegicus [8]
  LOAEL: 7 mg/kg-day
Guinea Pig, Mouse, Rat
  NOAEL: 19 mg/m3

## O=C(NC(=O)c1c(F)cccc1F)Nc1ccc(Cl)c(Oc2ncc(C(F)(F)F)cc2Cl)c1 [Fluazuron]
Mus musculus [9]
  NOEL: 4.3 mg/kg-day

## C=C1C[C@H]2[C@@H]3C=C(C)C4=CC(=O)CC[C@]4(C)[C@H]3CC[C@]2(C)[C@@]1(OC(C)=O)C(C)=O [Melengestrol acetate]
Monkey
  LOEL: 0.005 mg/kg-day

## C1COCCN1 [Morpholine]
Cavia porcellus [10]
  LD50: 900 mg/kg
Mammals [11]
  LC50: 12 mg/L (≈ 138 µM)
Mus musculus [12]
  LD50: 525 mg/kg
Rattus norvegicus [1]; acute, inhalation
  LD50: ≥ 7.8 mg/L and ≤ 8.2 mg/L
Cavia porcellus [13]
  LD100: 100 mg/kg
Mammals [14]
  LD100: 1220 mg/kg
Rattus norvegicus [15]; injection, Intraperitoneal
  LD100: 400 mg/kg
Rattus norvegicus [15]; oral
  LD100: 100 mg/kg

## CC(=O)[C@H]1CC[C@H]2[C@@H]3CCC4=CC(=O)CC[C@]4(C)[C@H]3CC[C@]12C [Progesterone]
Mus musculus [16]
  LEL: 0.087 mg
  LEL (gamma): 30
Oryctolagus sp. [17]
  LEL: 1 mg/day
Rattus norvegicus [18]; duration: 2 days, oral
  LEL: 0.5 mg/kg-day
Rattus norvegicus [18]; duration: 4 days, injection, intraperitoneal
  LEL: 50 mg/kg-day
Rattus norvegicus [18]; duration: 14 days, oral
  LEL: 10 mg
Homo sapiens; Clinical
  LOEL: 3.3 mg/kg-day
Homo sapiens; clinical
  LOEL: 3.3 mg/kg-day
